Source: patent US7879846B2, “Serine hydrolase inhibitors” (Kyorin Pharmaceutical Co.., Ltd., priority 2006, dated 2011)
Values joined by “and” are separate entries in the source; they are usually repeats but may differ in a detail not shown here. Identical values can stand only once. Counter-ions that a name gives are not always drawn.

What was measured:
[1] = tested on: LPS-induced increase of lung permeability (Evan's blue dye leakage); test: Acute lung injury model (lung permeability assay); format: in vivo; conditions: male Wistar rats, intratracheal LPS, intravenous infusion 10 mg/kg/hr over 6 hours, Evan's blue dye content of lung
Description: Acute Lung Injury Model (Lung Permeability Assay)
Adult male Wistar rats (200-250 g) were anesthetized with an intraperitoneal of pentobarbital (30 mg/kg). Under the anesthesia, lipopolysaccharide (LPS) ([…]) or physiological saline (100 μL/animal) was intratracheally injected. Increase of lung permeability after LPS instillation was measured by Evan's blue dye (EBD) leakage from blood. EBD (40 mg/5 mL/kg) was administered via tail vein 5 hours after the LPS challenge. At 6 hours, animals were exsanguinated by cardiac puncture under deep anesthesia and the pulmonary vessels were perfused with 20 mL saline to ensure the removal of EBD from the vascular spaces. Lungs were removed and EBD was extracted in 6 mL formamide at 65° C. overnight. EBD content was determined by measuring absorbance at 620 nm using a spectrophotometer. The test compound was dissolved in saline with a small amount of 1 N HCl and continuously infused intravenously at a rate of 10 mg/kg/hr over 6 hours starting just after LPS challenge.

[2] = molecular target: T1, Human sputum neutrophil elastase (Homo sapiens, UniProt P08246); test: Inhibitor IC50 against human neutrophil elastase (fluorogenic MeOSuc-AAPV-AMC substrate); format: biochemical; conditions: 20 min preincubation, read-out: HNE IC50
T1 construct: purchased Elastin Products Co; host or cells: human sputum (natural source)
T1 sequence (P08246 30-247 limits assumed): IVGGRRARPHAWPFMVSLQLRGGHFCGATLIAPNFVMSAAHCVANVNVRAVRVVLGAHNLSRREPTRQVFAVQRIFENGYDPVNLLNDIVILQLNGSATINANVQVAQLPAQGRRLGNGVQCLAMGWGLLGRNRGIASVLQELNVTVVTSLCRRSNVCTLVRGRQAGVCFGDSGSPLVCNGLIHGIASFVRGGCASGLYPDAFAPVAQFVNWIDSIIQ
Summary of the method: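 Enzyme from human sputum in 200 mM Tris pH 7.4 with 1 mg/ml BSA; MeOSuc-AAPV-AMC at 1×10^−4 M final. Reaction ran 20 min at room temperature, then quenched with 3% (v/v) acetic acid. IC50 from Hill fit of fluorescence versus inhibitor concentration.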

Compound | % Inhibition in the ALI model [1] | IC50 [2] [nM] | melting point
CCc1cc(OC)cc2nc(-c3cccnc3N3CCN(CCOC)CC3)oc(=O)c12 [Compound 134] | B (B=11-30) | – | –
CCc1cc(OC)cc2nc(-c3cccnc3N3CC[C@H](N(C)C)C3)oc(=O)c12 [Compound 132, 2-[2-((S)-3-Dimethylamino-pyrrolidin-1-yl)-pyridin-3-yl]-5-ethyl-7-methoxy-4H-benz[d][1,3]oxazin-4-one] | C (C>30) | < 15 | –
CCc1cc(OC)cc2nc(-c3cccnc3N3CC[C@H](N(C)C)C3)oc(=O)c12 (as salt: salt) (hydrate or solvate) [Compound 132, 2-[2-((S)-3-Dimethylamino-pyrrolidin-1-yl)-pyridin-3-yl]-5-ethyl-7-methoxy-4H-benz[d][1,3]oxazin-4-one] | – | – | 150 to 159 °C
CCc1cc(OC)cc2nc(-c3cccnc3N3CC[C@H](N(C)C)C3)oc(=O)c12 (as salt: tartrate) (hydrate or solvate) [Compound 132, 2-[2-((S)-3-Dimethylamino-pyrrolidin-1-yl)-pyridin-3-yl]-5-ethyl-7-methoxy-4H-benz[d][1,3]oxazin-4-one] | – | – | 148 to 155 °C and 144 to 145 °C
